Results published in patent publication US9610281B2 (priority 2012, dated 2017).
pEC50, pIC50: −log10 of the molar value.

How the values were obtained:
CD-1 mice [1] = experiment: Thermal radiation tail-flick experiment I in mice (analgesic effect); format: in vivo; conditions: for Tail-flick threshold: injected into abdominal cavity, 30 min after dosing, cut-off 22 sec
Experimental: Thermal Radiation Tail-flick Experiment I in Mice (Tail-flick assay): to Evaluate the Analgesic Effect In Vivo of the Compounds of the Present Invention.
(§1) Select CD-1 mice (with the original weight being 30-40 g) and divide them into 6 groups (solvent group, morphine group, 1-THP group and DHCB groups with different doses: 5, 10, and 40 mg/kg), each including 9-11 mice. Place mice tails on the thermal radiation tail-flick apparatus and direct the light beam at ⅓ of the mice tails. First determine the basic pain thresholds of each group of mice, then inject the test samples into the abdominal cavities of the mice respectively, and after 30 min, re-determine the mice's pain thresholds. The irradiation time was no more than 22 sec. See Table 2 for the determination results.

CD-1 mice [2] = experiment: Thermal radiation tail-flick experiment II in mice (duration time of analgesic effect); format: in vivo; conditions: pain thresholds within 6 hours; DHCB 20 and 40 mg/kg
Experimental: Thermal Radiation Tail-flick Experiment II in Mice (Tail-flick Assay): to Evaluate the Duration Time of the Analgesic Effect In Vivo of the Compounds of the Present Invention.
as §1, with “group,” for “group, 1-THP group”, “doses:” for “doses: 5,”, “10, 20” for “10,”, “determine” for “after 30 min, re-determine”, “thresholds within 6 hours according to time points.” for “thresholds.”, “sec.” for “sec. See Table 2 for the determination results.”

mice = experiment: Drug resistance experiment (mice tail-flick under thermal radiation, 7 days); format: in vivo; conditions: successive 7 days, DHCB 10 mg/kg into abdominal cavity, thresholds every other day
Experimental: Drug resistance is a defect existing in many commonly used analgesics, which constitutes great limitations on their use. This experiment studies the drug resistance of DHCB through mice tail-flick under thermal radiation. During the experiment, DHCB (10 mg/kg) had been injected into the abdominal cavity of the mice for successive 7 days and the mice's pain thresholds had been detected every other day.

μ opioid receptor = biological target: T1, μ opioid receptor (Homo sapiens, UniProt P35372); experiment: FLIPR Ca2+ assay, agonist of μ opioid receptor in stably transfected HEK293T cells; format: cell-based; conditions: for agonist effect on μ opioid receptor: intracellular Ca2+, vs DMSO blank
T1 construct: expressed in transfected cells; host or cells: HEK293T (stably transfected)
T1 sequence (P35372 whole entry, species assumed): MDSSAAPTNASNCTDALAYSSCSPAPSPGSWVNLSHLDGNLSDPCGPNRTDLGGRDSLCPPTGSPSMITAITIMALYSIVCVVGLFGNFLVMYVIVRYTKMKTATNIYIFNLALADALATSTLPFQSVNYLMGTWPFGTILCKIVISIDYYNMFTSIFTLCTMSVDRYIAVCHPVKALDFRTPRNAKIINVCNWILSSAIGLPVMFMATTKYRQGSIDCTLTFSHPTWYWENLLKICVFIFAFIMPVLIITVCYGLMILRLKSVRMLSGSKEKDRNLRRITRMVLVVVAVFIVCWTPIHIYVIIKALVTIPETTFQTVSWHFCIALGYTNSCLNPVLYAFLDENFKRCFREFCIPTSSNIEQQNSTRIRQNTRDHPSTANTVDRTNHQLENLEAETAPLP
Experimental: (§2) Experimental scheme: the cells used to express μ opioid receptors in this research are stably transfected human embryonic kidney 293T cells (HEK293T); the dopamine receptor applied is transiently transfected HEK293T. In this scheme, part of the berberine derivatives obtained in the present invention were added to the cells that have expressed with corresponding receptors, and FLIPR (Fluorometric Imaging Plate Reader; Molecular Devices Corp) was applied to screen and identify their functions. Specifically: inoculate cells to a 96-well cell culture plate coated with poly-D-lysme based on 80,000 per well, after 24 hours, remove the medium, add 100 μl fluorescent dye solution (2 μM Fluo-4 AM dissolves first in pluronic acid and then in the buffer composed of haploid Hank's buffer and 20 mM HEPES, with pH 7.4) to each well and keep it at 37° C. for 1 hour, then wash the cells with the buffer three times. Dissolve the compounds to be tested with DMSO and put them in a 96-well plate, apply FLIPR to automatically add samples to the cell culture plate and incubate for 3 min (for the tests of agonist of μ-opioid receptor) or 10 min (for the tests of antagonist of dopamine receptor). Then perform fluorescence detection under the wavelength of 520 nm and 488 nm, thus monitoring the concentration of Ca^2+ in the cells.
(§3) The experimental scheme is the same as that in example 1, except that when adding, dilute the compounds to be tested with buffer to different concentrations, so as to detect responses under different doses. This method has been used to test DHCB effect on μ-opioid receptors and 5 dopamine receptors, with the results as shown in FIG. 3 and Table 1. […] In addition, μ-opioid receptor's weak synergism can further enhance the analgesic effect of DHCB.

dopamine D2 receptor = biological target: T2, dopamine D2 receptor (Homo sapiens, UniProt P14416); experiment: FLIPR Ca2+ assay, antagonist of dopamine D2 receptor in transiently transfected HEK293T cells; format: cell-based; conditions: for antagonist effect on dopamine D2 receptor: intracellular Ca2+, vs DMSO blank
T2 construct: expressed in transfected cells; host or cells: HEK293T (transiently transfected)
T2 sequence (P14416 whole entry, species assumed): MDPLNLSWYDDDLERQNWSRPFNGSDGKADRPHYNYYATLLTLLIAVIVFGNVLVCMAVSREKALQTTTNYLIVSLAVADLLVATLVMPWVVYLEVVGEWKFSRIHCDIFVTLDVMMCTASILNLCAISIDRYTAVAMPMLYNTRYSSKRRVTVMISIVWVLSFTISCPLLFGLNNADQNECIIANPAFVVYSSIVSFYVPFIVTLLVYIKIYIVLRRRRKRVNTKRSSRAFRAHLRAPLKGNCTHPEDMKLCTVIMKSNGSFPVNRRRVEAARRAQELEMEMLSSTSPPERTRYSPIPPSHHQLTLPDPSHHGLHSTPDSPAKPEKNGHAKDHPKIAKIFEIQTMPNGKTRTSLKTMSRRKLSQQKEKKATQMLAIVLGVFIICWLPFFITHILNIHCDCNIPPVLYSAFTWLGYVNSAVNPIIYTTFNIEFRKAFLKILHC
Experimental: as §2, §3

Dopamine D1 = biological target: T3, Dopamine D1 (Homo sapiens, UniProt P21728); experiment: FLIPR Ca2+ assay, antagonist of dopamine D1 receptor in transiently transfected HEK293T cells; format: cell-based
T3 construct: expressed in transfected cells; host or cells: HEK293T (transiently transfected)
T3 sequence (P21728 whole entry): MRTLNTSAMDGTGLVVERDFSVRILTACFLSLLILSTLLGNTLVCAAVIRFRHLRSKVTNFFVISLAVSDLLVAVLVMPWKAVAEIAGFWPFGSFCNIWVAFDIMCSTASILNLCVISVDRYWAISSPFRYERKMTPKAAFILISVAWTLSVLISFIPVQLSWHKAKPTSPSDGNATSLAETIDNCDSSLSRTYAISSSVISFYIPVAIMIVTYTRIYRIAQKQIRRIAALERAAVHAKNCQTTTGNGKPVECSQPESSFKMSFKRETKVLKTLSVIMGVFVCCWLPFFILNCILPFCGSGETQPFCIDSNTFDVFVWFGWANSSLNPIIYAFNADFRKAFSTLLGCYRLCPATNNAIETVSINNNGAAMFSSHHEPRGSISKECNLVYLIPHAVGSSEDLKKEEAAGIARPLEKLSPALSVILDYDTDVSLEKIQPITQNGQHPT
Experimental: as §2, with “cells. […]” for “cells.”

Dopamine D3 = biological target: T4, Dopamine D3 (Homo sapiens, UniProt P35462); experiment: FLIPR Ca2+ assay, antagonist of dopamine D3 receptor in transiently transfected HEK293T cells; format: cell-based
T4 construct: expressed in transfected cells; host or cells: HEK293T (transiently transfected)
T4 sequence (P35462 whole entry): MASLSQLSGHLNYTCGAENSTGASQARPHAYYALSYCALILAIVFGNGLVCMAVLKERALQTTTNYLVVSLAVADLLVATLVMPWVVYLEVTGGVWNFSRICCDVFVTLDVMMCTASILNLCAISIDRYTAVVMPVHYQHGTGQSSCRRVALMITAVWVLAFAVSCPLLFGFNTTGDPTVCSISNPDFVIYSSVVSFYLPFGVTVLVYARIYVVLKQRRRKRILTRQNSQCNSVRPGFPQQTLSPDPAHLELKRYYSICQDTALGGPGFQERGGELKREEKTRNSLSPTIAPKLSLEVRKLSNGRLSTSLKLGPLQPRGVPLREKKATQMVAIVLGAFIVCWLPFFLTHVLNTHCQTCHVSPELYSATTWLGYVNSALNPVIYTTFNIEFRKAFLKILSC
Experimental: as §2, with “cells. […]” for “cells.”

Dopamine D4 = biological target: T5, Dopamine D4 (Homo sapiens, UniProt P21917); experiment: FLIPR Ca2+ assay, antagonist of dopamine D4 receptor in transiently transfected HEK293T cells; format: cell-based
T5 construct: expressed in transfected cells; host or cells: HEK293T (transiently transfected)
T5 sequence (P21917 1-419): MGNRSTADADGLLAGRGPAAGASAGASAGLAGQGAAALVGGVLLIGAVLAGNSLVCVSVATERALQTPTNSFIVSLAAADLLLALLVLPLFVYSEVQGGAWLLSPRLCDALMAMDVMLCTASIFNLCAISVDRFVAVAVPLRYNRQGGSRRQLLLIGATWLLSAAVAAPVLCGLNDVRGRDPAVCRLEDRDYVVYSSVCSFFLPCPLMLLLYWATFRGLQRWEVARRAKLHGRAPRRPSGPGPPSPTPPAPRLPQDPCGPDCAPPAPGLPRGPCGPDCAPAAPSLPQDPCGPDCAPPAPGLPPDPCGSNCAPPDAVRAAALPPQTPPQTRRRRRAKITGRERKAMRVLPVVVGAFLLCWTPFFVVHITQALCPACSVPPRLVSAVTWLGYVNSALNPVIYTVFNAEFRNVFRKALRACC
Experimental: as §2, with “cells. […]” for “cells.”

Dopamine D5 = biological target: T6, Dopamine D5 (Homo sapiens, UniProt P21918); experiment: FLIPR Ca2+ assay, antagonist of dopamine D5 receptor in transiently transfected HEK293T cells; format: cell-based
T6 construct: expressed in transfected cells; host or cells: HEK293T (transiently transfected)
T6 sequence (P21918 whole entry): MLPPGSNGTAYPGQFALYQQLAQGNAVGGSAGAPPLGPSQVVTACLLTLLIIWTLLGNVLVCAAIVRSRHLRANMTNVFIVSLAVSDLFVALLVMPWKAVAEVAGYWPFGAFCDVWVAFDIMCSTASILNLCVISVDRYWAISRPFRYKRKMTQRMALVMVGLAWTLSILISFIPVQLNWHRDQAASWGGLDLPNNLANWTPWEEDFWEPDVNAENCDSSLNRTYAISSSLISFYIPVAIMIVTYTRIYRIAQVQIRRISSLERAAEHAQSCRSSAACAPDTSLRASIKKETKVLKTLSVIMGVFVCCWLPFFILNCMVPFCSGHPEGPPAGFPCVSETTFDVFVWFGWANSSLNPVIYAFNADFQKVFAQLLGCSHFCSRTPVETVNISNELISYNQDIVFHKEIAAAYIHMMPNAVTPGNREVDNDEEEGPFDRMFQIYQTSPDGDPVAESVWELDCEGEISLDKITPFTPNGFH
Experimental: as §2, with “cells. […]” for “cells.”

CD-1 mice [3] = experiment: Formalin pain experiment in mice; format: in vivo; conditions: 5% formalin 15 min after drug
Experimental: Activity Example 5: to Evaluate the Analgesic Effect In Vivo of the Compounds of the Present Invention Through Formalin Pain Experiment in Mice.
Select CD-1 mice (with the original weight being 30-40 g) and divide them into 4 groups (solvent group, morphine group, and DHCB groups with different doses: 5 and 10 mg/kg), each including 9-11 mice. Place hind paws of the mice that are marked with formalin injection into the cages for 15-30 min. Inject drugs of corresponding doses into each mouse, and after 15 min, infuse 5% formalin solution subcutaneously into the underside of marked paw feet. The mice soon began to lick or bite their injected feet. Keep observation for 50 min, and record mice feet-licking time within phase I (0-5 min) and phase II (10-50 min).

## CN1CC[C@]23c4c5ccc(O)c4O[C@H]2[C@@H](O)C=C[C@H]3[C@H]1C5 [morphine, reference compound]
CD-1 mice [1]; 10 mg/kg
  Tail-flick threshold: 20 s
CD-1 mice [2]
  duration of analgesic effect in tail-flick: weakens quickly two hours later
mice
  analgesic effect on repeated dosing (drug resistance): began to reduce obviously from the third day

## COc1cc2c(cc1O)CC[n+]1cc3c(O)c(OC)ccc3c(C)c1-2 [Compound 16]
μ opioid receptor
  agonist effect on μ opioid receptor: a certain agonist
Dopamine D2 receptor; FLIPR, HEK293T
  antagonist effect on dopamine D2 receptor: good antagonist

## COc1cc2c(cc1O)-c1c(C)c3ccc(OC)c(OC)c3c[n+]1CC2 [Compound 10]
Dopamine D2 receptor; FLIPR, HEK293T
  antagonist effect on dopamine D2 receptor: good antagonist

## COc1cc2c(cc1O)CC[n+]1cc3c(OC)c(OC)ccc3c(C)c1-2 [Compound 12, dehydrocorybulbine]
μ opioid receptor; dose-effect curve
  pEC50: 4.00
μ opioid receptor
  agonist effect on μ opioid receptor: a certain agonist
μ opioid receptor; listed as DHCB
  agonist effect on μ opioid receptor: weak agonist
Dopamine D2 receptor; FLIPR screen, THP positive control
  antagonist activity on D2 compared with THP: equivalent to that of THP
Dopamine D2 receptor; FLIPR, HEK293T
  antagonist effect on dopamine D2 receptor: good antagonist
Dopamine D2 receptor; FLIPR, HEK293T, listed as DHCB
  antagonist effect on dopamine D2 receptor: antagonist
Dopamine D2 receptor; dose-effect curve, FLIPR, HEK293T
  pIC50: 6.28
Dopamine D1; dose-effect
  effect on dopamine D1 receptor: antagonist
Dopamine D1; dose-effect curve, HEK293T
  pIC50: 5.67
Dopamine D3; dose-effect
  effect on dopamine D3 receptor: antagonist
Dopamine D3; dose-effect curve, HEK293T
  pIC50: 5.62
Dopamine D4; dose-effect
  effect on dopamine D4 receptor: antagonist
Dopamine D4; dose-effect curve, HEK293T
  pIC50: 5.08
Dopamine D5; dose-effect
  effect on dopamine D5 receptor: antagonist
Dopamine D5; dose-effect curve, HEK293T
  pIC50: 6.14
CD-1 mice [1]; 5 mg/kg
  Tail-flick threshold: 9 s
CD-1 mice [1]; 10 mg/kg
  Tail-flick threshold: 12 s
CD-1 mice [1]; 40 mg/kg
  Tail-flick threshold: 17 s
CD-1 mice [1]; doses of 5, 10, and 40 mg/kg
  analgesic effect in tail-flick: significant dose-dependent analgesic effect
CD-1 mice [1]; high dose 40 mg/kg
  analgesic effect on heat stimulation compared with morphine: close to that of small-dose morphine
CD-1 mice [1]; low dose 10 mg/kg
  analgesic effect in tail-flick compared with controls: superior to that of THP
CD-1 mice [2]
  duration of analgesic effect in tail-flick: does not exhibit conspicuous attenuation until four hours have passed
CD-1 mice [3]; 5 mg/kg and 10 mg/kg
  analgesic effect within phase I (0-5 min), feet-licking time: substantial analgesic effect
CD-1 mice [3]; 10 mg/kg
  analgesic effect within phase II (10-50 min), feet-licking time: significant analgesic effect
mice
  analgesic effect on repeated dosing (drug resistance): unchanged analgesic effect

## COc1cc2c(cc1O)-c1c(C)c3ccc(OC)c(O)c3c[n+]1CC2 [Compound 14]
Dopamine D2 receptor; FLIPR, HEK293T
  antagonist effect on dopamine D2 receptor: good antagonist

## COc1cc2c(cc1OC)[C@@H]1Cc3ccc(OC)c(OC)c3CN1CC2 [Compound 1-THP, L-tetrahydropalmatine, reference compound]
CD-1 mice [1]; 10 mg/kg
  Tail-flick threshold: 10 s
